The record followed here is publication PMC4725915, “Ruthenium(II) Complexes with 2-Phenylimidazo[4,5-f][1,10]phenanthroline Derivatives that Strongly Combat Cisplatin-Resistant Tumor Cells” (Scientific Reports, 2016).

Data set [1] deals with cancer cell lines (HeLa, A549, A549R). Kind of data set: MTT cytotoxicity, all tested cancer cell lines taken together. The format is cell-based, human. The settings on record: 48 h, read-out: IC50 toward all the tested cancer cell lines. The method, then:
(§1) Compounds 1–4 were evaluated against three tumor cell lines derived from different tissues, including the cervix (HeLa), lung (A549) and cisplatin-resistant lung (A549R) tissues. For comparison, the cytotoxicity of cisplatin was also evaluated. As a control, the toxicities of the complexes were also tested against the normal human cell line (LO2).
(§2) The cytotoxicity of the ruthenium complexes and cisplatin were determined by an MTT assay. Briefly, cells were seeded into 96-well microtiter plates at 1 × 10^4 cells per well and grown overnight at 37 °C in a 5% CO2 incubator; then, different concentrations of the complexes in cell culture medium were added to the cultures. The plates were then incubated in an incubator for 48 h under the same conditions. The stock MTT dye solution (15 μL, 5 mg/mL) was added to each well. After 4 h of incubation, the cultures were removed and 150 μL of DMSO was added to each well. The optical density of each well was measured on a microplate spectrophotometer at a wavelength of 595 nm.

For a further data set, the system named is A549. Description: MTT cytotoxicity assay, A549. The format is cell-based, human. The settings on record: A549, 48 h, mean ± SD of three experiments. The method, then:
as §1
(§3) The human cervix carcinoma cell line (HeLa), the lung carcinoma cell lines (A549 and A549R), and the human hepatocyte cell line (LO2) were obtained from the Experimental Animal Center at Sun Yat-Sen University (Guangzhou, China). The cells were maintained in Dulbecco’s modified Eagle’s medium (DMEM, Gibco BRL) or Roswell Park Memorial Institute 1640 (RPMI 1640, Gibco BRL) medium supplemented with 10% fetal bovine serum (FBS, Gibco BRL), 100 μg/mL streptomycin, and 100 U/mL penicillin (Gibco BRL) in a humidified incubator under 5% CO2 and 20% O2 at 37 °C. To maintain the resistant phenotype, A549R cells were incubated with 5 μM cisplatin and cultured in drug-free medium for at least a week before use.
as §2

Another data set concerns HeLa. Kind of data set: MTT cytotoxicity assay, HeLa. The settings on record: 48 h, mean ± SD of three experiments. The format is cell-based, human. The method, then:
as §1, §3, §2
(Tetrazolium dyes change colour on reduction, which living cells bring about.)

The next data set concerns A549R. Description: MTT cytotoxicity assay, cisplatin-resistant A549R. The format is cell-based, human. The note with it: 48 h, mean ± SD of three experiments. The method, then: as §1, §3, §2
Data set [2] deals with A549R MCTSs. Description: Cytotoxicity test on 3D MCTSs (Cell TiterGlo ATP). The settings on record: A549R MCTSs (~400 μm in diameter), 48 h. The format is cell-based, human. The procedure:
MCTSs were cultured using the liquid overlay method. A549R cells in the exponential growth phase were dissociated by a trypsin/EDTA solution to gain single-cell suspensions. A number of 3000 diluted A549R cells were transferred to 1.5% agarose-coated transparent 96-well plates with 200 μL of DMEM containing 10% serum. The single cells formed MCTS aggregates approximately 400 μm in diameter after three days with 5% CO2 and 20% O2 at 37 °C. After formation of the MCTSs, each MCTS in a 96-well plate was imaged with a phase contrast microscope (Zeiss Axio Observer D1, Germany) using 10× objective to monitor their color, integrity, diameter, and volume.
A549R MCTSs (diameters ≈400 μm) were treated by carefully replacing 50% of the medium with drug-supplemented standard medium using an eight-channel pipet. In parallel, 50% of the medium containing solvent was replaced with solvent-free medium for the untreated MCTSs. Three A549R MCTSs were treated per condition and drug concentration; the DMSO volume was less than 1% (v/v). The MCTSs were then allowed to incubate for another 48 h. The cytotoxicities of the Ru(II) complexes toward the MCTSs were measured using ATP concentrations with a Cell TiterGlo kit (Promega). After 30 min of incubation, the MCTSs were carefully transferred into black-sided, flat-bottomed 96-well plates (Corning) and mixed with a pipet for luminescence measurements on an Infinite M200 PRO instrument (TECAN).
Background: ATP-based viability assays read luminescence as a measure of living cells.

The test system of another data set is LO2. Kind of data set: MTT cytotoxicity assay, normal LO2 cells. The settings on record: LO2 normal human cell line, 48 h. The format is cell-based. The method, then: as §1, §3, §2
Data set [3] in a line: Distribution coefficient (log Po/w), flask-shaking, n-octanol/phosphate buffer. The format is physicochemical. The settings on record: n-octanol / phosphate buffer pH 7.4, 37 °C; in words only (Figure S8). The procedure: Distribution coefficients (log Po/w) were determined by liquid-liquid extraction between n-octanol (oil) and phosphate buffers (0.2 M, pH 7.4) with the flask-shaking method. N-Octanol and the buffer were mutually saturated with each other for at least 24 h before use. An aliquot of a ruthenium complex stock solution was added to the phosphate buffer concentrations at <10 mg/mL, and the mixture was shaken at 100 rpm for 24 h at 37 °C to allow for adequate partitioning. After the sample was centrifuged at 3000 rpm for 20 min, the aqueous layer was used for ruthenium analysis, and the Ru content in the aqueous layer was measured by ICP-MS and used to calculate the log Po/w.

The test system of data set [4] is A549R cells. Kind of data set: Cell uptake study by ICP-MS. The format is cell-based, human. The settings on record: 2.0 μM, 12 h. The procedure:
(§4) To understand the high sensitivity of cancer cells to Ru(II) complexes, the extent of cellular uptake was investigated with inductively coupled plasma mass spectrometry (ICP-MS) by treating the HeLa, A549, A549R and LO2 cell lines with 2.0 μM concentrations of the Ru(II) complexes and cisplatin for 12 h. […] In this study, the cellular uptake and lipophilicity were distinctly correlated and followed the order: 4 >3 >2 >1. Complex 4 had the best accumulation, but the amount of Ru in LO2 cells was far less than that in the three cancer lines, indicating selective accumulation and improved efficiency for treating cancer. Cisplatin was taken up more efficiently by the sensitive cell line (A549) than by the cisplatin-resistant cell line (A549R). […] However, less than 1.5% of the cellular platinum was accumulated in the mitochondrial fraction of the A549R cells. Therefore, complex 4 could function in a different manner than cisplatin in A549R cells, which would be an appropriate solution to combat cisplatin resistance in tumor cells.
The cells were plated at a density of 1 × 10^5 cells/mL in 10 mL of DMEM for 24 h at 37 °C under 5% CO2 and 20% O2, Ruthenium complexes (2.0 μM) and cisplatin were added to the culture medium and incubated for 12 h, and mixed with cold PBS and a trypsin-EDTA solution in a centrifuge tube for counting. Then, the nuclei and cytoplasm of the cells were extracted by using a Nuclear and Cytoplasmic Protein Extraction Kit (Life Technologies). The samples were digested in 20% HNO3 and 10% H2O2 at room temperature overnight. Each sample was then diluted with Milli-Q water to obtain 2% HNO3 sample solutions. Ruthenium contents were determined using inductively coupled plasma mass spectrometry (ICP-MS Thermo Elemental Co., Ltd.).

Data set [5] relates to A549R cells. Kind of data set: Subcellular distribution study by ICP-MS. The class given is cell-based, human. The settings on record: 2.0 μM, 12 h. The method, then: as §4
A549R cells were plated at a density of 1 × 10^5 cells/mL in 10 mL of DMEM for 24 h at 37 °C under 5% CO2 and 20% O2. […] The ruthenium or platinum contents were determined using inductively coupled plasma mass spectrometry (ICP-MS Thermo Elemental Co., Ltd.).

Data set [6] deals with A549R MCTSs. Kind of data set: Growth inhibition of drug-treated MCTSs (size by imaging). The class given is cell-based, human. The settings on record: 100 μM. The source says: Traditional research on the efficacy of cancer drugs is usually performed in two-dimensional (2-D) cell cultures, which may not be a true indicator of the in vivo effectiveness of cancer treatments. This is in part due to the absence of cell-cell or cell-extracellular matrix interactions in 2-D cell models. Therefore, the development of cell culture models that can close the gap between conventional 2-D cell experiments and animal studies is necessary to study the cytotoxicity and anti-proliferative activities of drugs. Multicellular tumor spheroids (MCTSs) are heterogeneous cellular aggregates that have properties of solid tumors, such as nutrient and oxygen gradients, hypoxic/necrotic regions, cell-cell matrix interactions, and gene expression.
MCTSs were cultured using the liquid overlay method. A549R cells in the exponential growth phase were dissociated by a trypsin/EDTA solution to gain single-cell suspensions. A number of 3000 diluted A549R cells were transferred to 1.5% agarose-coated transparent 96-well plates with 200 μL of DMEM containing 10% serum. The single cells formed MCTS aggregates approximately 400 μm in diameter after three days with 5% CO2 and 20% O2 at 37 °C. […]

For data set [7], the system named is A549R cells. Description: Real-time cell growth and proliferation assay (xCELLigence). The format is cell-based, human. The settings on record: 100 μM. The procedure:
In addition, a real-time cell growth and proliferation assay using an xCELLigence System was utilized to confirm the high toxicity of complex 4 on A549R cells. […] In contrast, A549R cells were killed by treatment with complex 4 in a concentration-dependent manner.
This experiment was performed using an xCELLigence RTCA DP system real time cell analyzer (Roche Diagnostics GmbH, Germany). In brief, 80 μL of cell culture media was added to each well of a 16-well plate (E-plate 16, Roche Diagnostics GmbH, Germany). The 16-well plates were then connected to the system and checked for suitable electrical contacts in the real time cell analyzer, and the background impedance was measured for 24 s. Meanwhile, the A549R cells were suspended in cell culture medium and adjusted to 5 × 10^4 cells/mL, and 100 μL of each cell suspension was added to each well of […]. Approximately 24 h after seeding, the A549R cells were in the logarithmic phase of growth, and a wide range of concentrations of complex 4 and cisplatin (100 μM) were added. The cells were automatically monitored every 15 min over 48 h by the xCELLigence system. Data were analyzed using RTCA software (version 1.2) that was supplied with the instrument.

The IC50 is the concentration that inhibits the measured activity by half.

`[Ru+2].c1ccc(-c2nc3c4cccnc4c4ncccc4c3[nH]2)cc1.c1cnc2c(c1)ccc1cccnc12.c1cnc2c(c1)ccc1cccnc12` [Complex 1, [Ru(phen)2(PIP)]^2+]: the IC50 (in [1]; in the data set with A549; with HeLa; with A549R; in the data set on A549R MCTSs [2]; in the data set on LO2) was above 100 µM each time. The “log Po/w” value in [3] is on record as “negative”.
For the molecule `FC(F)(F)c1ccc(-c2nc3c4cccnc4c4ncccc4c3[nH]2)cc1.[Ru+2].c1cnc2c(c1)ccc1cccnc12.c1cnc2c(c1)ccc1cccnc12` [Complex 2], the IC50 with A549 came out at 43.4 ± 5.3 µM; with HeLa, 55.4 ± 3.1 µM; in the data set with A549R it was 48.2 ± 2.7 µM; in the data set with A549R MCTSs [2], 95.7 µM; in the data set with LO2 it was 75.8 ± 7.5 µM. Moreover, the “log Po/w” value in data set [3] is “moderate”.
On to `N.N.[Cl][Pt][Cl]` [cisplatin], for which the IC50 in the data set with A549 is 21.3 ± 3.3 µM; in the data set with HeLa it was 15.1 ± 2.1 µM; in the data set with A549R it was 142 ± 5.4 µM; with A549R MCTSs [2], above 200 µM; in the data set on LO2, 18.9 ± 2.6 µM. Besides, the “share of the compound taken up by A549R cells” value with A549R cells [4] (A549R) is recorded as “less than 1%”. Further, the “platinum level in A549 cells relative to A549R cells” value in the data set on A549R cells [4] (A549 vs A549R) is on record as “ca. 4 fold”. Besides, the “share of cellular metal accumulated in the mitochondrial fraction” value in the data set on A549R cells [5] is listed as “less than 1.5%”. The “change in size of A549R MCTSs” value in the data set on A549R MCTSs [6] is given as “increased with time”. In addition, the “effect on A549R cells compared to the control (xCELLigence)” value with A549R cells [7] is “negative effect”.
In the case of Ru(phen)2(tbtfpip)(PF6)2 [Complex 3], the half-maximal inhibitory concentration (IC50) in the data set with A549 is 28.6 ± 2.6 µM; with HeLa, 22.5 ± 3.3 µM; in the data set on A549R it was 32.2 ± 1.5 µM; with A549R MCTSs [2] it was 60.6 ± 5.5 µM; in the data set on LO2 it was 45.6 ± 3.8 µM. Further, the “log Po/w” value in data set [3] is “moderate”.
